According to PubChem BioAssay AID330 (DTP/NCI, 2004):
Values joined by “and” are separate entries in the source; they are usually repeats but may differ in a detail not shown here. Identical values can stand only once. Inconclusive results and toxic doses are left out. The calls were made as follows: active = survival T/C of 150% or more; inactive = T/C below 125% in these data.

Tested on: P388 leukemia ip, CD2F1 mice, survival T/C
Experiment: NCI In Vivo Anticancer Drug Screen. Data for tumor model P388 Leukemia (intraperitoneal) in CD2F1 (CDF1) mice
Conditions: endpoint: median survival time, higher = longer survival
Method in brief: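 Mice carrying the transplanted tumor received test compound or vehicle. Survival was recorded in each group, and the value is the treated-group measurement divided by that of the vehicle-treated control group.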

[1] = dose: 60.0 mg/kg/injection, schedule: Q01DX005 (ip), vehicle: saline with Tween-80
[2] = dose: 120.0 mg/kg/injection, schedule: Q01DX005 (ip), vehicle: saline with Tween-80
[3] = dose: 240.0 mg/kg/injection, schedule: Q01DX005 (ip), vehicle: saline with Tween-80
[4] = dose: 50.0 mg/kg/injection, schedule: Q01DX009 (ip), vehicle: saline with Tween-80
[5] = dose: 100.0 mg/kg/injection, schedule: Q01DX009 (ip), vehicle: saline with Tween-80
[6] = dose: 200.0 mg/kg/injection, schedule: Q01DX009 (ip), vehicle: saline with Tween-80
[7] = dose: 400.0 mg/kg/injection, schedule: Q01DX009 (ip), vehicle: saline with Tween-80
[8] = dose: 50.0 mg/kg/injection, schedule: Q01DX005 (ip), vehicle: Klucel (hydroxypropylcellulose) (HPC)
[9] = dose: 100.0 mg/kg/injection, schedule: Q01DX005 (ip), vehicle: Klucel (hydroxypropylcellulose) (HPC)
[10] = dose: 200.0 mg/kg/injection, schedule: Q01DX005 (ip), vehicle: Klucel (hydroxypropylcellulose) (HPC)

Measured: T/C

CN(C)CCC(CCc1ccccc1)OC(=O)c1ccc([N+](=O)[O-])cc1 (centres undefined)
inactive: dose: 50.0 mg/kg/injection, schedule: Q04DX002 (ip), vehicle: saline 102 % of control | dose: 100.0 mg/kg/injection, schedule: Q04DX002 (ip), vehicle: saline 107 % of control

COc1ccc(NC(=O)c2cc3ccc4c5ccccc5[nH]c4c3cc2O)cc1
inactive: dose: 50.0 mg/kg/injection, schedule: Q01DX005 (ip), vehicle: saline with Tween-80 90 % of control | dose: 100.0 mg/kg/injection, schedule: Q01DX005 (ip), vehicle: saline with Tween-80 88 % of control

CC1=C(C)C(=O)O[C@@H]([C@](C)(O)[C@]2(O)CC[C@@]3(O)[C@@H]4C[C@H]5O[C@]56CC=CC(=O)[C@]6(C)[C@H]4CC[C@]23C)C1
inactive: dose: 12.5 mg/kg/injection, schedule: Q01DX009 (ip), vehicle: Klucel (hydroxypropylcellulose) (HPC) 109 % of control and 110 % of control | dose: 12.5 mg/kg/injection, schedule: Q04DX003 (ip), vehicle: Klucel (hydroxypropylcellulose) (HPC) 122 % of control | dose: 25.0 mg/kg/injection, schedule: Q01DX009 (ip), vehicle: Klucel (hydroxypropylcellulose) (HPC) 107 % of control and 124 % of control | dose: 50.0 mg/kg/injection, schedule: Q01DX009 (ip), vehicle: Klucel (hydroxypropylcellulose) (HPC) 100 % of control | dose: 50.0 mg/kg/injection, schedule: Q04DX003 (ip), vehicle: Klucel (hydroxypropylcellulose) (HPC) 124 % of control

COC(=O)[C@]1(CC[N+](=O)[O-])N=C(c2ccccc2)O[C@@H]1C
inactive: [1] 105 % of control | [2] 109 % of control | [3] 113 % of control

O=C(CCCCCCCCc1cccc2c1OCO2)c1c(O)cccc1O
inactive: dose: 2.0 mg/kg/injection, schedule: Q01DX009 (ip), vehicle: Klucel (hydroxypropylcellulose) (HPC) 103 % of control | dose: 4.0 mg/kg/injection, schedule: Q01DX009 (ip), vehicle: Klucel (hydroxypropylcellulose) (HPC) 95 % of control | dose: 8.0 mg/kg/injection, schedule: Q01DX009 (ip), vehicle: Klucel (hydroxypropylcellulose) (HPC) 109 % of control | dose: 16.0 mg/kg/injection, schedule: Q01DX009 (ip), vehicle: Klucel (hydroxypropylcellulose) (HPC) 105 % of control

CC#CC(=O)OC
inactive: [4] 94 % of control | [5] 101 % of control | [6] 98 % of control | [7] 98 % of control

Cc1cccc2nccn12
inactive: dose: 6.25 mg/kg/injection, schedule: Q01DX009 (ip), vehicle: saline with Tween-80 97 % of control | dose: 12.5 mg/kg/injection, schedule: Q01DX009 (ip), vehicle: saline with Tween-80 95 % of control | dose: 25.0 mg/kg/injection, schedule: Q01DX009 (ip), vehicle: saline with Tween-80 97 % of control | [4] 100 % of control

C=CCC1=C(CC)C(=O)c2ccccc2C1=O
inactive: [8] 100 % of control | [9] 100 % of control | [10] 111 % of control

CCOc1ccc(-n2c(O)c(N=Nc3ccccc3OC)sc2=S)cc1
inactive: [8] 97 % of control | [9] 93 % of control | [10] 95 % of control

C/C=C(/C)c1cccc(OCc2ccccc2)c1OCc1ccccc1
inactive: [4] 95 % of control | [5] 90 % of control | [6] 106 % of control

COC1=CC2OC3OC(=O)CC3C2C(OCc2ccccc2)=C1 (centres undefined)
inactive: [1] 91 % of control | [2] 88 % of control | [3] 90 % of control

Cn1c(=O)nc2n(C)c3ccccc3cc-2c1=O
inactive: [4] 116 % of control | [5] 116 % of control | [6] 113 % of control

COc1nc2c(nc(N)n2C2OC(COC(C)=O)C(OC(C)=O)C(OC(C)=O)C2OC(C)=O)c(=O)n1C (centres undefined)
inactive: dose: 60.0 mg/kg/injection, schedule: Q01DX005 (ip), vehicle: saline 92 % of control | dose: 240.0 mg/kg/injection, schedule: Q01DX005 (ip), vehicle: saline 92 % of control

CC1(C)c2ccccc2-c2nc3ccccc3nc2C1O (centres undefined)
inactive: dose: 100.0 mg/kg/injection, schedule: Q04DX003 (ip), vehicle: Klucel (hydroxypropylcellulose) (HPC) 110 % of control | dose: 200.0 mg/kg/injection, schedule: Q04DX003 (ip), vehicle: Klucel (hydroxypropylcellulose) (HPC) 99 % of control | dose: 400.0 mg/kg/injection, schedule: Q04DX003 (ip), vehicle: Klucel (hydroxypropylcellulose) (HPC) 112 % of control

CCCCC[CH2][Ge]([CH2]CCCCC)([CH2]CCCCC)[O]C(C)=O
inactive: dose: 50.0 mg/kg/injection, schedule: Q01DX001 (ip), vehicle: Klucel (hydroxypropylcellulose) (HPC) 100 % of control and 107 % of control | dose: 100.0 mg/kg/injection, schedule: Q01DX001 (ip), vehicle: Klucel (hydroxypropylcellulose) (HPC) 101 % of control and 106 % of control | dose: 200.0 mg/kg/injection, schedule: Q01DX001 (ip), vehicle: Klucel (hydroxypropylcellulose) (HPC) 104 % of control and 115 % of control | dose: 400.0 mg/kg/injection, schedule: Q01DX001 (ip), vehicle: Klucel (hydroxypropylcellulose) (HPC) 120 % of control

CCCCC(NC(C)=O)C(=O)O (centres undefined)
inactive: [4] 99 % of control and 95 % of control | [5] 98 % of control | [6] 100 % of control and 96 % of control | [7] 100 % of control

COc1ccc2nc(NC(=O)C(=O)C(C)C(=O)c3ccc(Cl)cc3)sc2c1 (centres undefined)
inactive: [1] 108 % of control | [2] 98 % of control | [3] 105 % of control

Cc1c(C(=O)O)c(O)cc2c1C(=O)c1c(O)c(C3OC(CO)C(O)C(O)C3O)c(O)c(O)c1C2=O (centres undefined)
inactive: dose: 0.12 mg/kg/injection, schedule: Q01DX009 (ip), vehicle: saline 108 % of control | dose: 0.25 mg/kg/injection, schedule: Q01DX009 (ip), vehicle: saline 104 % of control | dose: 0.5 mg/kg/injection, schedule: Q01DX009 (ip), vehicle: saline 110 % of control | dose: 1.0 mg/kg/injection, schedule: Q01DX009 (ip), vehicle: saline 103 % of control | dose: 2.0 mg/kg/injection, schedule: Q01DX009 (ip), vehicle: saline 101 % of control

CCOC(=O)C1C(C)=CC2=Nc3ccccc3NC(=O)C2C1c1ccccc1 (centres undefined)
inactive: dose: 25.0 mg/kg/injection, schedule: Q01DX005 (ip), vehicle: Klucel (hydroxypropylcellulose) (HPC) 104 % of control | [8] 106 % of control

CC(C)(C)S.[Ge]
inactive: dose: 7.5 mg/kg/injection, schedule: Q01DX009 (ip), vehicle: saline with Tween-80 106 % of control | dose: 15.0 mg/kg/injection, schedule: Q01DX009 (ip), vehicle: saline with Tween-80 107 % of control | dose: 30.0 mg/kg/injection, schedule: Q01DX009 (ip), vehicle: saline with Tween-80 103 % of control

CSC1=NN(C(C)=O)C(c2ccncc2)S1 (centres undefined)
inactive: [8] 96 % of control | [9] 97 % of control | [10] 92 % of control

C1CCC2(CC1)NCCO2
inactive: dose: 25.0 mg/kg/injection, schedule: Q01DX005 (ip), vehicle: suspension in saline 98 % of control | dose: 50.0 mg/kg/injection, schedule: Q01DX005 (ip), vehicle: suspension in saline 93 % of control | dose: 100.0 mg/kg/injection, schedule: Q01DX005 (ip), vehicle: suspension in saline 94 % of control | dose: 200.0 mg/kg/injection, schedule: Q01DX005 (ip), vehicle: suspension in saline 109 % of control | dose: 400.0 mg/kg/injection, schedule: Q01DX005 (ip), vehicle: suspension in saline 98 % of control

OC(C(c1ccccc1)c1ccccn1)(C(F)(F)F)C(F)(F)F (centres undefined)
inactive: dose: 100.0 mg/kg/injection, schedule: Q04DX003 (ip), vehicle: saline with Tween-80 100 % of control | dose: 200.0 mg/kg/injection, schedule: Q04DX003 (ip), vehicle: saline with Tween-80 95 % of control | dose: 400.0 mg/kg/injection, schedule: Q04DX003 (ip), vehicle: saline with Tween-80 95 % of control

O=C(COP(=O)(OCC(=O)Oc1ccc([N+](=O)[O-])cc1)Oc1ccc([N+](=O)[O-])cc1)Oc1ccc([N+](=O)[O-])cc1
inactive: dose: 25.0 mg/kg/injection, schedule: Q01DX009 (ip), vehicle: other 102 % of control | dose: 50.0 mg/kg/injection, schedule: Q01DX009 (ip), vehicle: other 98 % of control | dose: 100.0 mg/kg/injection, schedule: Q01DX009 (ip), vehicle: other 93 % of control | dose: 200.0 mg/kg/injection, schedule: Q01DX009 (ip), vehicle: other 91 % of control | dose: 400.0 mg/kg/injection, schedule: Q01DX009 (ip), vehicle: other 108 % of control

CCOC(=O)c1ccc(NC(=O)N2CCCCC2C)cc1 (centres undefined)
inactive: dose: 60.0 mg/kg/injection, schedule: Q01DX005 (ip), vehicle: Klucel (hydroxypropylcellulose) (HPC) 104 % of control | dose: 120.0 mg/kg/injection, schedule: Q01DX005 (ip), vehicle: Klucel (hydroxypropylcellulose) (HPC) 89 % of control | dose: 240.0 mg/kg/injection, schedule: Q01DX005 (ip), vehicle: Klucel (hydroxypropylcellulose) (HPC) 97 % of control
